Data on one compound can be found in patent publication US8901177B2, “Method of treating bladder disorders” (Targacept, Inc., priority 2012, dated 2014).

“Also recorded” adds a separate entry of the source.

Data set [1] has as its target T1, human α3β4 channels (Homo sapiens, UniProt P30926+P32297).
T1 construct: host or cells: CHO cells
In words: Use-dependent inhibition of human α3β4 channels expressed in CHO cells (Dynaflow electrophysiology). It is filed as cell-based. The protocol: There was an assumption that the dependence on the number of co-applications would be the most relevant to clinical concentrations, since upon the time of exposure in vivo, the number of open channels could reach substantial numbers; perhaps due to channel spontaneous opening, flickering, and endogenous transmitter release as a result of brain activity. All experiments were performed using a conventional Dynaflow (Cellectricon Inc.) electrophysiological system. Dynaflow settings: To achieve continuous exposure to the drug we used following Dynaflow chip loading. An example of standard chip loading for use-dependent experiments with example for 30 μM ACh and 0.1 μM of TC-05231 (racemic mecamylamine). For the following experiments, ACh always consisted of 30 μM and concentrations of compounds were, 0.03, 0.1, 0.3 and 1.0 (μM). FIG. 13 illustrates the settings.
Applications were performed by positioning the cell in front of channel #1 for 1 second, followed by channel #3, then back to channel #1 by rapidly moving the Dynaflow chip, which consisted of both the laminar flow from the channels and the entire bath solution. The additional channels between control and ACh-containing channel were used: (1) to provide the needed space for an additional washout to avoid contaminating the control channels with the agonist solution; and (2) to allow for the necessary amount of time for the Dynaflow stage to reach its optimum scanning speed.
3.1. Establishment of recording baseline: First, pipette with cells moved to channel #3. Then cells were exposed to ACh by moving cells to channel #1 for 1 second and back to channel #3. This movement of cells was repeated 10 times at 30 second intervals;
3.2. Collection data on use-dependent inhibition: After establishment of stable baseline, cells were moved to channel #6 and exposed to a test compound for 30 sec. Then cells were moved to channel #8 for 1 second and back to channel #6 for 30 seconds (total 10 times with intervals 30 seconds); and 3.3. To test reversibility of block (washout): repeat step 1. Note: with this chip setting, during repeated application of acetylcholine plus test compound, there was no interruption in application of compounds. For all calculations, peak current amplitude was normalized to the peak current amplitude evoked by the 10th application of acetylcholine. Experimental Results

For data set [2], the target named is α4β2 (Homo sapiens, UniProt P17787+P43681). To be noted: 1 μM; cited from earlier work.
In data set [3] the test system is bladder function in anesthetized rats. In words: Intravesical model in anesthetized rats (increased bladder contraction frequency), cystometry. It is filed as in vivo, rat. Conditions: 1 μM and 10 μM intravesical infusion. The procedure: Female Sprague Dawley rats (200-290 g) from Charles River France, housed in 3-4 rats per cage were anesthetized with urethane (1.2 g/kg) s.c., 3 mL/kg). A polyethylene catheter was implanted into the bladder through the dome. Ureters were tied and cut. Intravesical infusion periods with saline followed by an intravesical infusion period with one of the test compounds, hexamethonium (10 μM) or dexmecamylamine (1 and 10 μM), are depicted in FIG. 7.
The intravesical anesthetized rat model is a model of increased bladder contraction frequency. The model is a “simplified” well established model used to evaluate OAB agents, recognizing that there are decreased inputs from cortical centers. This is the first known experiment using the intravesical anesthetized rat model of increased bladder contraction frequency to test dexmecamylamine for potential efficacy in treating OAB.

For data set [4], the target named is T2, α6-containing nicotinic receptors (Homo sapiens, UniProt Q15825).
T2 construct: expressed in transfected cells; host or cells: oocytes
In words: α6-containing nicotinic receptors expressed in oocytes, stimulated with acetylcholine. It is filed as cell-based. Conditions: acetylcholine alone or with increasing concentrations.

Data set [5] in a line: Mouse carcinogenicity studies. To be noted: much higher doses and concentrations than in the clinical program. It is filed as in vivo. An excerpt: Further, the Summary Basis of Approval for Detrol® indicates similar (lower rates) of bladder dilatation, as is noted in dexmecamylamine's carcinogenicity studies. Urinary retention, and concomitant urinary tract infection, is not anticipated to be a therapy-limiting side effect for relatively low doses and concentrations of dexmecamylamine (FIG. 24).

Data set [6] has as its target NMDA receptor NR1a-NR2B (Homo sapiens, UniProt Q05586+Q13224). The experiment in a line: Glutamate-evoked currents at NR1a-NR2B receptors in Xenopus oocytes (two electrode voltage-clamp). The class given is cell-based. The procedure:
All experiments were carried out at receptors expressed in Xenopus oocytes using the method of cDNA expression. Currents evoked by glutamate were recorded using the standard two electrode voltage-clamp configuration (TVEC). Xenopus oocytes were prepared and injected using standard procedures.
Briefly, ovaries are harvested from Xenopus Laevis females that have been deeply anesthetized and pithed following the animal rights rule from the Geneva canton. […] Data were filtered at 10 Hz, captured at 100 Hz and analyzed using HiQ proprietary data acquisition and analysis software running under Matlab (Mathworks Inc.).
Oocytes expressing the NR1a-NR2A or NR1a-NR2B receptors were challenged at periodic intervals with a glutamate test pulse. Test drug was then applied during a sustained period and its effects monitored by measuring the amplitude and time course of the glutamate evoked currents. […]
To further evaluate effects of TC-5214, experiments using sustained exposure to this compound followed by a recovery period were carried out at NR1a-NR2A and NR1a-NR2B receptors. Measurements were made with (nM) 0, 3, 10, 30, 100, 300, TC-5214 and recovery monitored during 10 minutes. […] Effects were measured in at least three cells. […]
For orientation: Two-electrode voltage clamp is typically applied to oocytes expressing channels or transporters.

T1 sequence (P32297 32-505): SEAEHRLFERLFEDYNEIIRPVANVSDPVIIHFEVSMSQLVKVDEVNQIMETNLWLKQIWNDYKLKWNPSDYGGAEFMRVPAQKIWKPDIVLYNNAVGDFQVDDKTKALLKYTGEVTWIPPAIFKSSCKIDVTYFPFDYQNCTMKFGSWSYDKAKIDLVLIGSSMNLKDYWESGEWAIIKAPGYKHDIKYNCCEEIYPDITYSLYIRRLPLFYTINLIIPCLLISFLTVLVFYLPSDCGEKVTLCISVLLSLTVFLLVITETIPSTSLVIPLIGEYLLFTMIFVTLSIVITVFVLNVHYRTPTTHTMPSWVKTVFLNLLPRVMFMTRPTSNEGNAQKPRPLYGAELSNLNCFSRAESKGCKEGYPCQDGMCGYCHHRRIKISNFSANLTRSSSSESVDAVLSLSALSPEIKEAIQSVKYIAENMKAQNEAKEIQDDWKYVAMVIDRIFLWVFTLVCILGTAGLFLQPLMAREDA
T1 sequence (P30926 22-498): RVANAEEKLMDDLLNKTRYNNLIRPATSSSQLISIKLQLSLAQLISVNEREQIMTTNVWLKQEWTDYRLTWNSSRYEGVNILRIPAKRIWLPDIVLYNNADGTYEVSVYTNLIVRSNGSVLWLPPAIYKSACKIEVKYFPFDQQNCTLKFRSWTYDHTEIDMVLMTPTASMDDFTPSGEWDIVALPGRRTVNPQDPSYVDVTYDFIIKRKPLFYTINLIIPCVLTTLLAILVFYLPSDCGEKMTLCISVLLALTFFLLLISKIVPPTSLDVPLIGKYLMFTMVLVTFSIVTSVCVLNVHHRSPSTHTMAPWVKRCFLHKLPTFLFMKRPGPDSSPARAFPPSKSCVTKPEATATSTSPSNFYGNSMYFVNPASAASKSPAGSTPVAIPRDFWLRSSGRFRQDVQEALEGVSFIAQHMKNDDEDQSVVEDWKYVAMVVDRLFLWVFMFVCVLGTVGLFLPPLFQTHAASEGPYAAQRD
Chain of NMDA receptor NR1a-NR2B (Q13224 27-1484, other chains not shown): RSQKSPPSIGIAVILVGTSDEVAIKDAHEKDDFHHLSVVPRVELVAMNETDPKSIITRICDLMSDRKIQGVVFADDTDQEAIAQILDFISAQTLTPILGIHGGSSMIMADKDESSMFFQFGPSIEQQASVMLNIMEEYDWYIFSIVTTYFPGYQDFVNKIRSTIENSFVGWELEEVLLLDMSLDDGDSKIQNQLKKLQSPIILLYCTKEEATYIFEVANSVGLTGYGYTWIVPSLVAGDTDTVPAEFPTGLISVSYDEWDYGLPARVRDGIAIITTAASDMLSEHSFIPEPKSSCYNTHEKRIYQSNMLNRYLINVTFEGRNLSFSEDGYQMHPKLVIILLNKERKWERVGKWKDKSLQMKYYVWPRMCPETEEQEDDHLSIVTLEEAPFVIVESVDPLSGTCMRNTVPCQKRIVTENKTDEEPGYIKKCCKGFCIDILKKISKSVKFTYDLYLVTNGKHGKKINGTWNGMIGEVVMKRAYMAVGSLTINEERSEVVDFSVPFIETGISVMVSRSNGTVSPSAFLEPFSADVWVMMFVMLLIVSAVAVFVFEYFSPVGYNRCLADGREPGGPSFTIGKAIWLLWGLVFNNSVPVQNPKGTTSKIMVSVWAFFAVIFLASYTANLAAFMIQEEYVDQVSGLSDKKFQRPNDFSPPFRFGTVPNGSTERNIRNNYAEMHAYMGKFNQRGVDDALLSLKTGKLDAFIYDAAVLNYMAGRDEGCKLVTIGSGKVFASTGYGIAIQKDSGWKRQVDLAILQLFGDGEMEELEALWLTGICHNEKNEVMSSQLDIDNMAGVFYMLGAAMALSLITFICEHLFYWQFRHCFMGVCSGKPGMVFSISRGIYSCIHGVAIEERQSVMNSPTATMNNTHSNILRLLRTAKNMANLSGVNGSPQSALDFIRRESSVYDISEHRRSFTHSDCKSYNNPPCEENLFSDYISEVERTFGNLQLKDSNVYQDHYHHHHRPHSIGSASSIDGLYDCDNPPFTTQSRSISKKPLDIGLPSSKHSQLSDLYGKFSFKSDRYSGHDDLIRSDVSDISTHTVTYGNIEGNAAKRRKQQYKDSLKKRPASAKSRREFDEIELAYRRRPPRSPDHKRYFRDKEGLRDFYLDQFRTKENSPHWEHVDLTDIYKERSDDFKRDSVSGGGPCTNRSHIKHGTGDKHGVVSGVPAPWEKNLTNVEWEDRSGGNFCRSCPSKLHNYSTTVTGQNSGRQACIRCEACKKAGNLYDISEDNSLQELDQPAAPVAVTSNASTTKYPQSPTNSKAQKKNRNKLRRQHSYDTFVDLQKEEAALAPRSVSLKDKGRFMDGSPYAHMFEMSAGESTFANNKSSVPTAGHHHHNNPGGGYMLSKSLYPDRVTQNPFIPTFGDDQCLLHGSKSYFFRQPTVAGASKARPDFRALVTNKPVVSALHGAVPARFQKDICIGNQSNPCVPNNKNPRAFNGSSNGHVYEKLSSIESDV
T2 sequence (Q15825 26-494): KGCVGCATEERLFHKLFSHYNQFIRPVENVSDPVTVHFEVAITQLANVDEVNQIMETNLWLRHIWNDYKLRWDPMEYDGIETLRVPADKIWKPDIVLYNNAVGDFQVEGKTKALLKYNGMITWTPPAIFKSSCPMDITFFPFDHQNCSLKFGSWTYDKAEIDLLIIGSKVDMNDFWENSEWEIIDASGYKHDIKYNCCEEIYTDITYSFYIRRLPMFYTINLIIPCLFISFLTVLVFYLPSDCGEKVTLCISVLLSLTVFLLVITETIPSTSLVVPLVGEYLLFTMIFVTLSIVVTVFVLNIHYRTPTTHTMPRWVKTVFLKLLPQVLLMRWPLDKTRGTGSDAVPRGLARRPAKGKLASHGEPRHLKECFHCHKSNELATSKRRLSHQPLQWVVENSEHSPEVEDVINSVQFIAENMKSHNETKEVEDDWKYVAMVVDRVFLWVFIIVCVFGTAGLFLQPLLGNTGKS
Chain of α4β2 (P43681 29-627 limits assumed): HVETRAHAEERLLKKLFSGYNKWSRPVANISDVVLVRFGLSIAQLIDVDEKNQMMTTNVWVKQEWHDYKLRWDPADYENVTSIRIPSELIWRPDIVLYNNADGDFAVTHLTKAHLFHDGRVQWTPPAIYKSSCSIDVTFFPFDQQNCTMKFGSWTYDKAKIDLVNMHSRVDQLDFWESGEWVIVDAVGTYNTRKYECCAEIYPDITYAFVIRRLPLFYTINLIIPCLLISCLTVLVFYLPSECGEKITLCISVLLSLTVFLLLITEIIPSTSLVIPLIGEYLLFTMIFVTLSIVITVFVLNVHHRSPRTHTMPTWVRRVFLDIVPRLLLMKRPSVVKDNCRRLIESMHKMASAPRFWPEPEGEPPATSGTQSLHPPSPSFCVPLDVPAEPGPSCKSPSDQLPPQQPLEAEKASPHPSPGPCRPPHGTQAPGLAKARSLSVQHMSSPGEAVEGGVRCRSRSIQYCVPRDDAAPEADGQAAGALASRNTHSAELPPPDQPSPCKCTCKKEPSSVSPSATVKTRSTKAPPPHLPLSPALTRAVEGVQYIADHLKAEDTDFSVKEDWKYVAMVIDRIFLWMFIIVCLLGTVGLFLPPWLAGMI
Chain of α4β2 (P17787 26-502): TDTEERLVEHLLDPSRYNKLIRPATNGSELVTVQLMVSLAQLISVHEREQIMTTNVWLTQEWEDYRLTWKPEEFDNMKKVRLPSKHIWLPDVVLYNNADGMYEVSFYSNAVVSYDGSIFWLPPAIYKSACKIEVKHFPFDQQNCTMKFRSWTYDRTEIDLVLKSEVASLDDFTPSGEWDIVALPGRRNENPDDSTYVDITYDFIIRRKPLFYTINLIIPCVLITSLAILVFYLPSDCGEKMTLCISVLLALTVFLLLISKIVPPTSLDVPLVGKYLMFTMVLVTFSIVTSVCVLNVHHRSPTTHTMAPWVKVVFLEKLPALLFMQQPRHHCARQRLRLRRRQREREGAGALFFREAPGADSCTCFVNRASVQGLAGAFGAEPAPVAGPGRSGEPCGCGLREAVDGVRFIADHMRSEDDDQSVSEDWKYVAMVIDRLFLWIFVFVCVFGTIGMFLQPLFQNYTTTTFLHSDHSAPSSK

As for `CNC1(C)[C@H]2CCC(C2)C1(C)C` (stereo partly drawn) [TC-5214, (S)—N,2,3,3-tetramethylnorbornan-2-amine], the “peak current normalized to 10th ACh application (positive modulation, FIG. 16)” value in data set [1] (30 nM compound + 30 μM ACh, first co-application, control = 100, SEM and n in next columns) is 113.3. Also, the “positive modulation of α3β4 function” value in data set [1] (30 nM, t-test p<0.05) is “weak positive modulation”. In data set [1] (100 nM compound with acetylcholine), the “inhibition of human α3β4 receptor (asymptotes to the curve, FIG. 14)” value is given as “minor to no detectable inhibition”. The “Inhibition by (%)” value in data set [1] (100 nM compound, after 10 co-applications of 30 uM Ach and compound) is 10% ± 6%. Also, the activity at 0.03 µM in data set [1] (CHO, 30 nM compound + 30 μM ACh, successive grid rows = co-applications 1 to 10, control = 100, read-out: peak current amplitude normalized to 10th ACh application, use-dependent inhibition box) turned out to be 113%. For the same compound, the activity at 0.1 µM in data set [1] (CHO, 100 nM compound + 30 μM ACh, successive grid rows = co-applications 1 to 10 at 30 s intervals, control = 100, read-out: peak current amplitude normalized to 10th ACh application, use-dependent inhibition box) amounted to 100%. The inhibition (commonly the change of the read-out against control, counted positive when it falls) at 0.1 µM in data set [1] (CHO, 100 nM compound, after 10 co-applications of 30 uM Ach and compound, read-out: Inhibition by (%)) was found to be 10.1%. The “recovery (%)” value in data set [1] (after 100 nM compound, following 10 application of Ach (30 uM) alone) is on record as 96% ± 6%. Besides, in data set [1] (after 30 and 100 nM compound, agonist alone), the “recovery / persistence of inhibition after wash out” value is “full recovery”. The “modulation of α4β2 function” value in data set [2] is on record as “positive modulation”. Moreover, in data set [3], the “bladder capacity (BC)” value is on record as “statistically significant increase”, the “inter-contraction interval (ICI)” value was “statistically significant increase” and the “micturition frequency (MF)” value is listed as “statistically significant decrease”. For the same compound, the “bladder contraction amplitude (AM)” value in data set [3] (listed as dexmecamylamine) is listed as “no significant decrease; also recorded: no significant change”. For the same compound, in data set [4], the “sensitivity of α6-containing nicotinic receptors” value was “sensitive”. Further, the urinary retention result in data set [5] is recorded as “urinary retention was noted”. Further, the “extent of inhibition over concentration range (FIG. 22)” value in data set [6] (3, 10, 30, 100, 300 nM, Glutamate 10 μM-Glycine 1 μM) was “partial inhibition”. Besides, the “concentration at which it potently inhibits” value in data set [6] (FIG. 23 legend) fell in the range of 10 to 30 nM.
